Laboratory results published in patent US8163477B2, “Nuclease-based method for detecting and quantitating oligonucleotides” (Isis Pharmaceuticals, Inc, priority 2000, dated 2012).

Experiment: Plasma concentration after subcutaneous injection in mice (pharmacokinetic profile)
Assay type: in vivo
Details: 50 mg/kg subcutaneous
Description: FIG. 5 is a graph showing the pharmacokinetic profile of ISIS 22023 following 50 mg/kg subcutaneous injection in mice. Plasma samples were analyzed at various time points using the oligonucleotide detection method of the present invention.
Detection of ISIS 22023 after injection in mice ISIS 22023 (50 mg/kg) was injected subcutaneously into mice and the plasma concentration was determined at various times post-injection by the method described in Example 1. […] The predicted and observed half lives corresponded very well.

Question: With “ISIS 2302: antisense oligonucleotide GCCCAAGCTGGCATCCGTCA (SEQ ID NO:2) (listed as DNA, chemistry not given here)” as the substance, how does the elimination half-life read?
Answer: Its elimination half-life is “very long”.
